Numbers after ± are expanded uncertainties.
Tests used:
[1] = 100 kPa, Liquid; for viscosity: Falling or rolling sphere viscometry; for mass density: Vibrating tube method
[2] = xn = mol fraction of the nth substance listed; settings: 100 kPa, Liquid, x1 = 1; for viscosity: Falling or rolling sphere viscometry; for mass density: Vibrating tube method

## CCO [ethanol]
[1]; 293.15 K
  viscosity: 1.15 ± 0.02 mPa·s
  mass density: 790.1 ± 0.2 kg/m3
[1]; 298.15 K
  viscosity: 1.07 ± 0.02 mPa·s
  mass density: 785.9 ± 0.2 kg/m3
[1]; 303.15 K
  viscosity: 0.97 ± 0.02 mPa·s
  mass density: 781.6 ± 0.2 kg/m3
[1]; 308.15 K
  viscosity: 0.89 ± 0.02 mPa·s
  mass density: 777.2 ± 0.2 kg/m3
[1]; 313.15 K
  viscosity: 0.81 ± 0.02 mPa·s
  mass density: 772.9 ± 0.2 kg/m3
[1]; 318.15 K
  viscosity: 0.76 ± 0.02 mPa·s
  mass density: 768.4 ± 0.2 kg/m3
[1]; 323.15 K
  viscosity: 0.68 ± 0.02 mPa·s
  mass density: 764 ± 0.2 kg/m3
[1]; 328.15 K
  viscosity: 0.63 ± 0.02 mPa·s
  mass density: 759.4 ± 0.2 kg/m3

## CCO [ethanol] + CCCCCCCO
[2]; 293.15 K
  viscosity: 1.15 ± 0.02 mPa·s
  mass density: 790.1 ± 0.2 kg/m3
[2]; 298.15 K
  viscosity: 1.07 ± 0.02 mPa·s
  mass density: 785.9 ± 0.2 kg/m3
[2]; 303.15 K
  viscosity: 0.97 ± 0.02 mPa·s
  mass density: 781.6 ± 0.2 kg/m3
[2]; 308.15 K
  viscosity: 0.89 ± 0.02 mPa·s
  mass density: 777.2 ± 0.2 kg/m3
[2]; 313.15 K
  viscosity: 0.81 ± 0.02 mPa·s
  mass density: 772.9 ± 0.2 kg/m3
[2]; 318.15 K
  viscosity: 0.76 ± 0.02 mPa·s
  mass density: 768.4 ± 0.2 kg/m3
[2]; 323.15 K
  viscosity: 0.68 ± 0.02 mPa·s
  mass density: 764 ± 0.2 kg/m3
[2]; 328.15 K
  viscosity: 0.63 ± 0.02 mPa·s
  mass density: 759.4 ± 0.2 kg/m3

## CCO [ethanol] + CCCCCCO
[2]; 293.15 K
  viscosity: 1.15 ± 0.02 mPa·s
  mass density: 790.1 ± 0.2 kg/m3
[2]; 298.15 K
  viscosity: 1.07 ± 0.02 mPa·s
  mass density: 785.9 ± 0.2 kg/m3
[2]; 303.15 K
  viscosity: 0.97 ± 0.02 mPa·s
  mass density: 781.6 ± 0.2 kg/m3
[2]; 308.15 K
  viscosity: 0.89 ± 0.02 mPa·s
  mass density: 777.2 ± 0.2 kg/m3
[2]; 313.15 K
  viscosity: 0.81 ± 0.02 mPa·s
  mass density: 772.9 ± 0.2 kg/m3
[2]; 318.15 K
  viscosity: 0.76 ± 0.02 mPa·s
  mass density: 768.4 ± 0.2 kg/m3
[2]; 323.15 K
  viscosity: 0.68 ± 0.02 mPa·s
  mass density: 764 ± 0.2 kg/m3
[2]; 328.15 K
  viscosity: 0.63 ± 0.02 mPa·s
  mass density: 759.4 ± 0.2 kg/m3

## CCCCCCCO [heptan-1-ol]
[1]; 293.15 K
  viscosity: 7.15 ± 0.07 mPa·s
  mass density: 822.3 ± 0.3 kg/m3
[1]; 298.15 K
  viscosity: 6.07 ± 0.06 mPa·s
  mass density: 818.8 ± 0.3 kg/m3
[1]; 303.15 K
  viscosity: 5.18 ± 0.05 mPa·s
  mass density: 815.3 ± 0.3 kg/m3
[1]; 308.15 K
  viscosity: 4.44 ± 0.04 mPa·s
  mass density: 811.8 ± 0.3 kg/m3
[1]; 313.15 K
  viscosity: 3.83 ± 0.04 mPa·s
  mass density: 808.2 ± 0.3 kg/m3
[1]; 318.15 K
  viscosity: 3.33 ± 0.04 mPa·s
  mass density: 804.6 ± 0.3 kg/m3
[1]; 323.15 K
  viscosity: 2.89 ± 0.03 mPa·s
  mass density: 801 ± 0.3 kg/m3
[1]; 328.15 K
  viscosity: 2.54 ± 0.03 mPa·s
  mass density: 797.4 ± 0.3 kg/m3

## CCCCCCO [hexan-1-ol]
[1]; 293.15 K
  viscosity: 5.35 ± 0.05 mPa·s
  mass density: 818.9 ± 0.3 kg/m3
[1]; 298.15 K
  viscosity: 4.56 ± 0.04 mPa·s
  mass density: 815.3 ± 0.3 kg/m3
[1]; 303.15 K
  viscosity: 3.9 ± 0.04 mPa·s
  mass density: 811.7 ± 0.3 kg/m3
[1]; 308.15 K
  viscosity: 3.36 ± 0.04 mPa·s
  mass density: 808.1 ± 0.3 kg/m3
[1]; 313.15 K
  viscosity: 2.91 ± 0.03 mPa·s
  mass density: 804.5 ± 0.3 kg/m3
[1]; 318.15 K
  viscosity: 2.54 ± 0.03 mPa·s
  mass density: 800.8 ± 0.3 kg/m3
[1]; 323.15 K
  viscosity: 2.23 ± 0.03 mPa·s
  mass density: 797.1 ± 0.3 kg/m3
[1]; 328.15 K
  viscosity: 1.97 ± 0.03 mPa·s
  mass density: 793.4 ± 0.3 kg/m3

Source: the NIST ThermoML archive (doi:10.1021/je501133u)
